The values below come from publication PMC9631343 (ACS Bio & Med Chem Au, 2022).

Molecules are shown by their SMILES.

The test deals with SARS-CoV-2 (Omicron variant, B.1.1.529.1/BA.1 sublineage). The format is cell-based.

Regarding `OC[C@H]1O[C@@H](n2cnc3c(N[C@@H]4CCOC4)ncnc32)[C@H](O)[C@@H]1O` [tecadenoson], the “100% CPE inhibitory concentration (CPEIC100)” value was found to be 7.65 ± 0.25 µM.
